Data reported in patent US20240228504A1, “SUBSTITUTED TRICYCLIC AMIDES, ANALOGUES THEREOF, AND METHODS USING SAME” (Arbutus Biopharma Corporation, priority 2020, published 2024).
Where two headings read alike, the source gives them in different places.

Test system: HBV rcDNA in HepDE19 cells
Experiment: HepDE19 assay with bDNA quantitation of HBV rcDNA
Type: cell-based, hepatitis B virus
Settings: inhibition of rcDNA formation, bDNA quantitation, read-out: DE-19bDNA EC50
[1] = Hepatitis B virus, HepDE19, HepDE19 assay

Compound	EC50 [1] [nM]	EC50 (HepDE19 assay) [nM]
CN(C(=O)c1cc2c(C(F)F)c(F)ccc2[nH]1)[C@@H]1COCc2[nH]c(=O)c3cc(F)c(F)cc3c21 [Compound 254, (S)-N-(8,9-Difluoro-6-oxo-1,4,5,6-tetrahydro-2H-pyrano[3,4-c]isoquinolin-1-yl)-4-(difluoromethyl)-5-fluoro-N-methyl-1H-indole-2-carboxamide]	10	–
CN(C(=O)c1cccc(-c2ccc(F)cc2)c1)[C@@H]1COCc2[nH]c(=O)c3cc(F)c(F)cc3c21 [Compound 289, (S)-N-(8,9-Difluoro-6-oxo-1,4,5,6-tetrahydro-2H-pyrano[3,4-c]isoquinolin-1-yl)-4′-fluoro-N-methyl-[1,1′-biphenyl]-3-carboxamide]	6400	–
CN(C(=O)c1cc2sccc2[nH]1)C1CNCc2[nH]c(=O)c3cc(F)c(F)cc3c21 (single isomer, unassigned) [Compound 421, N-(8,9-Difluoro-6-oxo-1,2,3,4,5,6-hexahydrobenzo[c][1,7]naphthyridin-1-yl)-N-methyl-4H-thieno[3,2-b]pyrrole-5-carboxamide]	–	40
CN(C(=O)c1cc2ccccn2c1)C1COCc2[nH]c(=O)c3cc(F)c(F)cc3c21 (single isomer, unassigned) [Compound 11, N-(8,9-Difluoro-6-oxo-1,4,5,6-tetrahydro-2H-pyrano[3,4-c]isoquinolin-1-yl)-N-methylindolizine-2-carboxamide]	–	5300
CC(C)C(=O)OC1OC[C@@H](N(C)C(=O)c2cc3cc(F)c(F)cc3[nH]2)c2c1[nH]c(=O)c1cc(F)c(F)cc21 (stereo partly drawn) [Compound 300, (1S)-1-(5,6-Difluoro-N-methyl-1H-indole-2-carboxamido)-8,9-difluoro-6-oxo-1,4,5,6-tetrahydro-2H-pyrano[3,4-c]isoquinolin-4-yl isobutyrate]	10	–
CCc1cc(F)cc2[nH]c(C(=O)N(C)[C@@H]3COCc4[nH]c(=O)c5cc(F)c(F)cc5c43)cc12 [Compound 342, (S)-N-(8,9-Difluoro-6-oxo-1,4,5,6-tetrahydro-2H-pyrano[3,4-c]isoquinolin-1-yl)-4-ethyl-6-fluoro-N-methyl-1H-indole-2-carboxamide]	10	–
CN(C(=O)c1cc2c(C(F)F)c(F)ccc2[nH]1)C1CNCc2[nH]c(=O)c3cc(F)ccc3c21 (single isomer, unassigned) [Compound 271, 4-(Difluoromethyl)-5-fluoro-N-(8-fluoro-6-oxo-1,2,3,4,5,6-hexahydrobenzo[c][1,7]naphthyridin-1-yl)-N-methyl-1H-indole-2-carboxamide]	–	6700
CN(C(=O)c1cc2ccccc2[nH]1)C1CCCc2[nH]c(=O)c3cc(F)c(F)cc3c21 (single isomer, unassigned) [Compound 466, N-(8,9-Difluoro-6-oxo-1,2,3,4,5,6-hexahydrophenanthridin-1-yl)-N-methyl-1H-indole-2-carboxamide]	–	2100
CN(C(=O)c1cc2c(Cl)cccn2c1)C1COCc2[nH]c(=O)c3cc(F)c(F)cc3c21 (single isomer, unassigned) [Compound 17, 8-Chloro-N-(8,9-difluoro-6-oxo-1,4,5,6-tetrahydro-2H-pyrano[3,4-c]isoquinolin-1-yl)-N-methylindolizine-2-carboxamide]	–	1900
CN(C(=O)c1csc(Br)c1)[C@@H]1COCc2[nH]c(=O)c3cc(F)c(F)cc3c21 [Compound 194, (S)-5-Bromo-N-(8,9-difluoro-6-oxo-1,4,5,6-tetrahydro-2H-pyrano[3,4-c]isoquinolin-1-yl)-N-methylthiophene-3-carboxamide]	70	–
Cc1cccc2[nH]c(C(=O)N(C)C3COCc4[nH]c(=O)c5cc(F)ccc5c43)cc12 (single isomer, unassigned) [Compound 422, N-(8-Fluoro-6-oxo-1,4,5,6-tetrahydro-2H-pyrano[3,4-c]isoquinolin-1-yl)-N,4-dimethyl-1H-indole-2-carboxamide]	–	1200
COc1c2ccc(C(=O)N(C)[C@@H]3COCc4[nH]c(=O)c5cc(F)c(F)cc5c43)cc2nn1C(F)F [Compound 367, (S)-N-(8,9-Difluoro-6-oxo-1,4,5,6-tetrahydro-2H-pyrano[3,4-c]isoquinolin-1-yl)-2-(difluoromethyl)-3-methoxy-N-methyl-2H-indazole-6-carboxamide]	4600	–
CN(C(=O)c1cc2c(F)cccn2c1)C1CNCc2[nH]c(=O)c3cc(F)c(F)cc3c21 (single isomer, unassigned) [Compound 161, N-(8,9-Difluoro-6-oxo-1,2,3,4,5,6-hexahydrobenzo[c][1,7]naphthyridin-1-yl)-8-fluoro-N-methylindolizine-2-carboxamide]	–	20
CN(C(=O)c1cc2c(C(F)F)cccc2[nH]1)C1CNCc2[nH]c(=O)c3cc(F)c(F)cc3c21 (single isomer, unassigned) [Compound 208, N-(8,9-Difluoro-6-oxo-1,2,3,4,5,6-hexahydrobenzo[c][1,7]naphthyridin-1-yl)-4-(difluoromethyl)-N-methyl-1H-indole-2-carboxamide]	–	30
CN(C(=O)c1cc2cccc(F)c2[nH]1)C1CNCc2[nH]c(=O)c3cc(F)c(F)cc3c21 (single isomer, unassigned) [Compound 114, N-(8,9-Difluoro-6-oxo-1,2,3,4,5,6-hexahydrobenzo[c][1,7]naphthyridin-1-yl)-7-fluoro-N-methyl-1H-indole-2-carboxamide]	–	20
CN(C(=O)c1cc2cc(F)ccn2c1)C1CNCc2[nH]c(=O)c3cc(F)c(F)cc3c21 (single isomer, unassigned) [Compound 162, N-(8,9-Difluoro-6-oxo-1,2,3,4,5,6-hexahydrobenzo[c][1,7]naphthyridin-1-yl)-7-fluoro-N-methylindolizine-2-carboxamide]	–	13800
CN(C(=O)c1cc2c(F)cc(F)cc2[nH]1)C1CNCc2[nH]c(=O)c3cc(F)c(F)cc3c21 (single isomer, unassigned) [Compound 118, N-(8,9-Difluoro-6-oxo-1,2,3,4,5,6-hexahydrobenzo[c][1,7]naphthyridin-1-yl)-4,6-difluoro-N-methyl-1H-indole-2-carboxamide]	–	1200
CCc1cc(F)cc2[nH]c(C(=O)N(C)C3CNCc4[nH]c(=O)c5cc(F)c(F)cc5c43)cc12 (single isomer, unassigned) [Compound 402, N-(8,9-Difluoro-6-oxo-1,2,3,4,5,6-hexahydrobenzo[c][1,7]naphthyridin-1-yl)-4-ethyl-6-fluoro-N-methyl-1H-indole-2-carboxamide]	–	20
CN(C(=O)c1ccc2ncsc2c1)C1CNCc2[nH]c(=O)c3cc(F)c(F)cc3c21 (single isomer, unassigned) [Compound 465, N-(8,9-difluoro-6-oxo-1,2,3,4,5,6-hexahydrobenzo[c][1,7]naphthyridin-1-yl)-N-methylbenzo[d]thiazole-6-carboxamide]	–	3200
CN(C(=O)c1cc2cc(C(F)(F)F)ncc2[nH]1)[C@@H]1COCc2[nH]c(=O)c3cc(F)c(F)cc3c21 [Compound 251, (S)-N-(8,9-difluoro-6-oxo-1,4,5,6-tetrahydro-2H-pyrano[3,4-c]isoquinolin-1-yl)-N-methyl-5-(trifluoromethyl)-1H-pyrrolo[2,3-c]pyridine-2-carboxamide]	230	–
CN([C@@H]1COCc2[nH]c(=O)c3cc(F)c(F)cc3c21)S(=O)(=O)c1ccc(F)c(Cl)c1 [Compound 143, (S)-3-Chloro-N-(8,9-difluoro-6-oxo-1,4,5,6-tetrahydro-2H-pyrano[3,4-c]isoquinolin-1-yl)-4-fluoro-N-methylbenzenesulfonamide]	18000	–
CN(C(=O)c1cc2c(Cl)cc(F)cc2[nH]1)[C@@H]1COCc2[nH]c(=O)c3cc(F)c(F)cc3c21 [Compound 343, (S)-4-Chloro-N-(8,9-difluoro-6-oxo-1,4,5,6-tetrahydro-2H-pyrano[3,4-c]isoquinolin-1-yl)-6-fluoro-N-methyl-1H-indole-2-carboxamide]	10	–
CN(C(=O)c1cc2c(F)cc(F)cc2[nH]1)C1COCc2[nH]c(=O)c3cc(F)c(F)cc3c21 (single isomer, unassigned) [Compound 44, N-(8,9-Difluoro-6-oxo-1,4,5,6-tetrahydro-2H-pyrano[3,4-c]isoquinolin-1-yl)-4,6-difluoro-N-methyl-1H-indole-2-carboxamide]	–	10
O=C(N[C@@H]1COCc2[nH]c(=O)c3cc(F)c(F)cc3c21)c1ccc(Cl)c(F)c1 [Compound 159, (S)-4-chloro-N-(8,9-difluoro-6-oxo-1,4,5,6-tetrahydro-2H-pyrano[3,4-c]isoquinolin-1-yl)-3-fluorobenzamide]	660	–
CN(C(=O)c1ccc(C(F)(F)F)c(F)c1)C1COCc2[nH]c(=O)c3ccccc3c21 (racemic) [Compound 132, 3-Fluoro-N-methyl-N-(6-oxo-1,4,5,6-tetrahydro-2H-pyrano[3,4-c]isoquinolin-1-yl)-4-(trifluoromethyl)benzamide]	60	–
CN(C(=O)C1Cc2ccccc21)[C@@H]1COCc2[nH]c(=O)c3cc(F)c(F)cc3c21 (stereo partly drawn) [Compound 269, N-((S)-8,9-Difluoro-6-oxo-1,4,5,6-tetrahydro-2H-pyrano[3,4-c]isoquinolin-1-yl)-N-methylbicyclo[4.2.0]octa-1(6),2,4-triene-7-carboxamide]	18600	–
Cc1ccc2[nH]c(C(=O)N(C)[C@@H]3COCc4[nH]c(=O)c5cc(F)c(F)cc5c43)cc2c1 [Compound 326, (S)-N-(8,9-Difluoro-6-oxo-1,4,5,6-tetrahydro-2H-pyrano[3,4-c]isoquinolin-1-yl)-N,5-dimethyl-1H-indole-2-carboxamide]	2500	–
CN(C(=O)c1cncc(F)c1)[C@@H]1COCc2[nH]c(=O)c3cc(F)c(F)cc3c21 [Compound 83, (S)-N-(8,9-Difluoro-6-oxo-1,4,5,6-tetrahydro-2H-pyrano[3,4-c]isoquinolin-1-yl)-5-fluoro-N-methylnicotinamide]	7000	–
CN(C(=O)c1ccc(S(C)(=O)=O)cc1)[C@@H]1COCc2[nH]c(=O)c3cc(F)c(F)cc3c21 [Compound 295, (S)-N-(8,9-Difluoro-6-oxo-1,4,5,6-tetrahydro-2H-pyrano[3,4-c]isoquinolin-1-yl)-N-methyl-4-(methylsulfonyl)benzamide]	350	–
